From patent publication EP4817428A1, “SWEETNESS ENHANCER CONTAINING ERGOTHIONEINE AS ACTIVE INGREDIENT, AND FOOD OR BEVERAGE PRODUCT CONTAINING SAME” (Kikkoman Corporation, priority 2023, dated 2025)
Where two headings read alike, the source gives them in different places.

Legend:
[1] = format: in vivo; details: 50% trehalose samples
Experimental: (§1) Evaluation results of sweetness of test product compared with control • ∘: Sweetness was enhanced compared to the control. • ◇: Sweetness was similar to that of the control.
In the following Test 9, sensory evaluation was performed by a panel of three experts in the same paired comparison test as in Tests 3, 5, and 7.
Samples were prepared by adding ergothioneine to a 50% trehalose sample to final concentrations of 0.5 ppm, 1 ppm, 3 ppm, 5 ppm, 10 ppm, and 20 ppm (Table 11, ERG0 to 20).
For the 50% trehalose samples to which ERG was added at each concentration (the concentration was not disclosed to the panel), pairs combining a control 50% trehalose sample and a 50% trehalose sample containing ergothioneine at each concentration were presented to the expert panel, and the panel evaluated which sample of the presented pair was perceived to be sweeter by a paired comparison test.

[2] = Test 9 (6): paired comparison test of sweetness, 0.1% stevia sample; format: in vivo; details: 0.1% stevia samples
[3] = format: in vivo; details: 50% glucose solution
Experimental: as §1
Samples ERG0 to 900 were prepared by adding ergothioneine to 50% glucose samples to final concentrations of 0.5 ppm, 1 ppm, 3 ppm, 5 ppm, 10 ppm, 20 ppm, 60 ppm, 100 ppm, 400 ppm, and 900 ppm (Table 4).
Pairs combining a control 50% glucose sample to which ergothioneine was not added and a 50% glucose sample containing ergothioneine at each concentration were presented to the expert panel of four, and the panel evaluated which sample of the presented pair was perceived to be sweeter by a paired comparison test.

physchem = format: physicochemical; details: 10% (100,000 ppm) dissolved in water at 40°C, left at 4°C; ERG precipitated 1 day later; read-out: concentration at which ERG could be contained in water
Experimental: ERG was dissolved in water at 40°C so that the ergothioneine concentration became 10% (100,000 ppm), and then left to stand at 4°C. When the solution was checked 1 day later, ERG was precipitated. From the above, the concentration at which ERG could be contained in water was less than 10%.

[4] = Test 9 (3): paired comparison test of sweetness, 50% starch syrup sample; format: in vivo; details: 50% starch syrup samples
[5] = format: in vivo; details: milk
Experimental: as §1
Samples of milk (EGR0.5 to 20) were prepared by adding ergothioneine to commercially available milk to final concentrations of 0.5 ppm, 1 ppm, 3 ppm, 5 ppm, 10 ppm, and 20 ppm.
(§2) A drinking test by a panel of three experts was conducted on the milk to which ERG was added at each concentration (the concentration was not disclosed to the panel), using a milk to which no ergothioneine was added (ERG0) as a control, and the sweetness was sensorially evaluated by a paired comparison test.

[6] = format: in vivo; details: ERG added to water to a final concentration of 60 ppm; all the five panelists
Experimental: In the same manner as in Test 1, sucrose samples having six concentrations of 0%, 1%, 1.5%, 2%, 2.5%, and 3%, and as a seventh sample, a sample in which ergothioneine was added to water to a final concentration of 60 ppm were prepared. A drinking test by the same expert panel of five as in Test 1 was conducted, and after tasting each sample and before tasting the next sample, the mouth was completely rinsed with water at room temperature, and sweetness was sensorially evaluated. The panel of five experts was asked to select a sample having an equivalent sweetness from among the 1st to 6th sucrose samples (the concentration was not disclosed to the panel) regarding the sweetness of the 7th sample.

[7] = format: in vivo
Experimental: Evaluation results of sweetness of test product compared with control • ∘: Sweetness was enhanced compared to the control. • ◇: Sweetness was similar to that of the control. […]
as §2, with “on the prepared soy milk to” for “on the milk to”, “using a prepared soy milk to” for “using a milk to”

[8] = format: in vivo; details: 4% sucrose
Experimental: as §1
Samples (ERG5 to 900) were prepared by adding ergothioneine to a 4% sucrose solution to final concentrations of 5 ppm, 20 ppm, 60 ppm, 100 ppm, 400 ppm, and 900 ppm, and a drinking test by an expert panel of four, different from those in Tests 1 and 2, was conducted on the 4% sucrose samples to which ERG was added at each concentration (the concentration was not disclosed to the panel), and sweetness was sensorially evaluated.
Pairs combining the control 4% sucrose sample of Table 3 below and the 4% sucrose sample containing ergothioneine at each concentration were presented to the expert panel, and the panel evaluated which sample of the presented pair was perceived to be sweeter by a paired comparison test.

[9] = Test 9 (7): paired comparison test of sweetness, 12.5% glycine sample; format: in vivo; details: 12.5% glycine samples
[10] = format: in vivo; details: amakuchi soy sauce
Experimental: as §1
as §2, with “soy sauce” for “milk”
The same test as in (1) described above was conducted by adding ERG to a commercially available amakuchi soy sauce (Golden Murasaki, Fundokin Shoyu).

[11] = format: in vivo; remark: listed apart in the source
Experimental: as §1
Samples (ERG0 to 10) were prepared by adding ergothioneine to 20% fructose samples to final concentrations of 0.5 ppm, 1 ppm, 3 ppm, 5 ppm, and 10 ppm.
A drinking test by a panel of four experts was conducted on 20% fructose samples to which ERG was added at each concentration (the concentration was not disclosed to the panel), using a 20% fructose sample to which no ergothioneine was added as a control, and sweetness was sensorially evaluated.
In addition, samples (ERG0.5 to 900) were prepared by adding ergothioneine to 20% fructose samples to final concentrations of 0.5 ppm, 5 ppm, 10 ppm, 20 ppm, 40 ppm, 60 ppm, 80 ppm, 100 ppm, 200 ppm, 400 ppm, and 900 ppm.
Pairs combining 20% fructose samples containing different concentrations of ERG (for example, a pair of ERG 20 ppm and 40 ppm) were presented to the expert panel, and the panel evaluated which sample of the presented pair was perceived to be sweeter by a paired comparison test.

[12] = Test 9 (4): paired comparison test of sweetness, 50% oligosaccharide sample; format: in vivo; details: 50% oligosaccharide samples

**Q.** Which “ERG added at which all the panelists evaluated that the sweetness was enhanced” value (“ERG added” for short) [1] does the source give for C[N+](C)(C)[C@@H](Cc1c[nH]c(=S)[nH]1)C(=O)[O-] [ERG, Ergothioneine] here?
**A.** Its value is at least 0.5 ppm.

**Q.** And the “ERG having a sweetness-enhancing effect, based on the trehalose content” value [1]?
**A.** The value was at least 0.0001 % by weight.

**Q.** What about the “ERG added” value [2] of the same molecule?
**A.** The value was at least 0.5 ppm.

**Q.** What about the “ERG having a sweetness-enhancing effect, based on the stevia content” value [2] of the same molecule?
**A.** The value was at least 0.05 % by weight.

**Q.** What about the “ERG added” value [3] of the same molecule?
**A.** Its value is at least 0.5 ppm.

**Q.** And the “ERG having a sweetness-enhancing effect, based on the glucose content” value [3]?
**A.** Its value is at least 0.0001 % by weight.

**Q.** What about the solubility at 24 h (physchem) of the same molecule?
**A.** Its solubility at 24 h is under 100 mg/mL.

**Q.** What about the “ERG added” value [4] of the same molecule?
**A.** Its value is at least 0.5 ppm.

**Q.** And the “ERG content at which all the panelists evaluated that the sweetness was enhanced” value [5]?
**A.** The value was 5 ppm.

**Q.** And the “sucrose solution of equivalent sweetness” value [6]?
**A.** The value was 0%.

**Q.** And the “ERG content at which all the panelists evaluated the enhancement of sweetness” value ([7]; prepared soy milk)?
**A.** The value was 5 ppm.

**Q.** And the “ERG content at which two panelists evaluated that the sweetness was enhanced” value ([7]; prepared soy milk)?
**A.** The value was 3 ppm.

**Q.** What about the creamy feel ([7]; prepared soy milk containing 40 ppm of ERG) of the same molecule?
**A.** The creamy feel was “increased”.

**Q.** And the “ERG concentration at which the sweetness-enhancing effect became constant” value [8]?
**A.** Its value is 100 ppm.

**Q.** What about the “ERG added” value [9] of the same molecule?
**A.** The value was at least 0.5 ppm.

**Q.** What about the “ERG having a sweetness-enhancing effect, based on the glycine content” value [9] of the same molecule?
**A.** Its value is at least 0.0004 % by weight.

**Q.** And the “ERG added” value [10]?
**A.** The value was at least 10 ppm.

**Q.** And the “ERG concentration at which the sweetness-enhancing effect became constant” value ([11]; 20% fructose)?
**A.** The value was 80 ppm.

**Q.** What about the “ERG added” value ([11]; 20% fructose samples) of the same molecule?
**A.** The value was at least 0.5 ppm.

**Q.** What about the “ERG having a sweetness-enhancing effect, based on the fructose content” value ([11]; 20% fructose samples) of the same molecule?
**A.** Its value is at least 0.0003 % by weight.

**Q.** And the “ERG added” value [12]?
**A.** Its value is at least 0.5 ppm.
